Measured values published in patent publication US20050101542A1, “Combination therapy for controlling appetites” (Regents of the University of California, priority 2002, published 2005).

Tests used:
c-fos mRNA = c-fos mRNA in situ hybridization in rat brain; assay type: in vivo; settings: 10 mg per kg i.p., 60 min; PVN, supraoptic nucleus, NST
Procedure: In situ hybridization. Rats were accustomed to the handling and injection procedure for five days. On day six, vehicle or drug OEA (10 mg per kg, i.p.), or oleic acid (10 mg per kg) was administered, and the rats killed 60 min later by decapitation under anesthesia. In situ hybridization analyses were conducted using ^35S-labeled cRNA probes for c-fos (Guthrie et al., Proc. Natl. Acad. Sci. U.S.A., 90:3329-3333 (1993)) and choline acetyl transferase (ChAT) (Lauterborn et al., Brain Res. Mol. Brain Res., 17:59-69 (1993)). Average hybridization densities were determined from at least three tissue sections per rat. Statistical significance was evaluated using one-way analysis of variance (ANOVA) followed by the Tukey-Kramer post-hoc test for paired comparisons.
The compounds of the invention may use peripheral sensory inputs to suppress appetite. Peripheral sensory inputs related to appetite suppression recruit several CNS structures, which include the nucleus of the solitary tract (NST) in the brainstem and the arcuate and paraventricular (PVN) Nuclei in the hypothalamus (Schwartz et al., Nature, 404:661-671 (2000)). To identify the brain pathways engaged during OEA-induced hypophagia, mRNA levels for the activity regulated gene c-fos (Curran et al., Oncogene, 2:79-84 (1987)) were mapped by in situ hybridization after systemic administration of OEA, oleic acid or vehicle. […]

[1] = Acute feeding experiments in free-feeding mice (C57BL/6J, wild-type, PPARα-null); assay type: in vivo, mouse
Procedure: Acute experiments. Drugs or appropriate vehicles (saline, for CCK-8 and d-fenfluramine; dimethylsulfoxide/saline, 70/30, for all other agents; 4 ml-kg^−1; i.p.) were administered at 5:00-5:30 PM to free-feeding mice, which were habituated to the experimental setting.

Adipocyte = test: Lypolysis (glycerol release) in adipocytes; assay type: cell-based, rat; settings: 30 min incubation
Text: This example illustrates the effect of OEA on fat metabolism and methods for studying the same. Oleoylethanolamide (OEA) decreases body weight not only by suppressing appetite, but also by possibly enhancing body fat catabolism. The effects of OEA on fatty acid oxidation in major body-fat burning tissues (soleus muscle, liver, cultured cardiac myocytes and astrocytes) was examined. […] In addition, OEA induces a significant mobilization of triacylglycerol stores from primary white adipose tissue cells. Table 4 details the methods and effects of OEA on fatty acid oxidation in these cells. Structure-activity relationship experiments provide evidence that the effect of OEA on skeletal muscle fatty acid oxidation is specific (FIG. 8).

iNOS = test: Transrepression of iNOS expression in mouse jejunum; assay type: in vivo; settings: jejunum of C57BL/6J mice; OEA or oleic acid 10, Wy-14643 30 mg kg^−1 i.p.
Procedure: Tissues were stored in RnaLater™ (Ambion), extracted total RNA with TRIzol™ (Invitrogen) and quantified it with Ribogreen™ (Molecular Probes). cDNA was synthesized by using SuperscriptII RNase H-reverse transcriptase (Invitrogen).
Reverse transcription of total RNA (2 μg) was performed using Oligo(dT)12-18 primer (0.2 μg) for 50 min at 42° C. Real Time Quantitative (RTQ) PCR was conducted using an ABI PRISM 7700 sequence detection system (Applied Biosystems). Primer/probe sets were designed using the Primer Express™ software and gene sequences available from the Genebank™ database. Primers and fluorogenic probes were synthesized by TIB (Adelphia). The primer/probe sequences for the mouse genes were:
RNA levels were normalized by using glyceraldehyde 3-phosphate dehydrogenase (GAPDH) as an internal standard. mRNA levels were measured by generating six-point serial standard curves using mouse total RNA. Estimates of relative mRNA abundance (in arbitrary units) were made by using the CT value (Schmittgen et al., 2000). Relative quantifications of RNAs of interest were made by using the 2^ΔCT formula, in which ΔCT was calculated by subtracting the CT value for GAPDH from the CT value for the gene of interest. This formula was validated for each primer/probe set by using six-point serial standard curves.

[2] = Liver OEA content after OEA injection in wild-type and PPAR-α null mice (HPLC/MS); assay type: in vivo, mouse; settings: 1 h after OEA 5 mg kg^−1 i.p.
[3] = OEA for 2 weeks in obese Zucker rats: serum lipids, glucose, food intake, body weight; assay type: in vivo, rat
Procedure: Subchronic experiments. Male wild-type and PPARα null mice were fed with a very high-fat diet (60 kcal % fat; D12492; Research Diets, NJ). […] The mice were divided into 4 groups (n=7-8 each), and treated them for 4 additional weeks with vehicle (saline/polyethylene glycol/Tween 80, 90/5/5; 1 ml-kg^−1) Or OEA (5 mg-kg^−1, once daily, i.p.). In a separate experiment, obese Zucker rats were treated for 2 weeks with vehicle or OEA (5 mg-kg^−1, once daily, i.p.), while maintaining them on a regular rodent chow (RMH 2500, Prolab). Food intake and body weight were measured daily. At the end of the experiments, the animals were fasted overnight, and tissues and blood samples collected for biochemical analyses.
Chronic experiment: In a separate experiment, we treated obese Zucker rats for 2 weeks with vehicle (saline/polyethylene glycol/Tween-80, 90/5/5; 1 ml kg^−1, once daily, i.p.) or OEA (5 mg kg^−1, once daily, i.p.), while maintaining them on a regular rodent chow (RMH 2500, Prolab). We measured food intake and body weight daily. At the end of the experiments, the animals were fasted overnight, and tissues and blood samples collected for biochemical analyses.
Lipids were extracted from mouse liver and epidydimal adipose tissue (Bligh and Dyer, 1959) and measured triglycerides with a commercial kit (Sigma). Serum lipids and glucose were measured with an automated Synchron LX® system (Beckman-Coulter).

[4] = OEA 5 mg kg−1 i.p. once a day for 2 weeks

CCCCCCCC/C=C\CCCCCCCC(=O)NCCO [OEA, Z-2-hydroxyethyl octadec-9-enamide]
c-fos mRNA levels in brain regions (c-fos mRNA): highly localized increase
meal pattern analysis (eating latency, meal size, post-meal interval) ([1]; C57BL/6J mice): essentially identical
feeding in wild-type mice ([1]; OEA 10 mg-kg^−1 i.p.): reduces feeding
feeding in PPARα-deficient mice ([1]; OEA 10, Wy-14643 40, d-fenfluramine 4 mg-kg^−1, CCK-8 25 μg-kg^−1, i.p.): absent and not
Stimulatory effect of 10 μM OEA on lypolysis (glycerol release) (Adipocyte): 38 ± 16 (n = 3) %
iNOS expression (iNOS): significantly decreased
Liver OEA content ([2]; PPAR-α-null mice): 251.2 ± 28.2 pmol/g
Liver OEA content ([2]; wild-type mice): 150.5 ± 19.7 pmol/g
Serum cholesterol [3, 4]: 66.14 ± 7.06 mg/dL
Serum glucose [3, 4]: 221.25 ± 23.80 mg/dL
Serum triglycerides [3, 4]: 394.17 ± 49.40 mg/dL
food intake and body-weight gain ([3]; OEA 5 mg-kg^−1 once daily for 2 weeks i.p.): significant inhibition
